# Reference: patent US10786475B2, “Method for preventing, treating, or improving fatty liver by administering effective amounts of azelaic acid to a subject” (Korea University Research and Business Foundation, priority 2018, dated 2020)
# How the values were obtained:
# [1] = tested on: Olfr544; experiment: cAMP, calcium and PKA activity in Hepa1c1c-7 cells (Olfr544 activation); assay type: cell-based, mouse
# Protocol: A cAMP assay estimates a production level of cAMP, which is a secondary messenger material of a GPCR receptor activated by a ligand, using a cAMP standard calibration curve. A 96 well-plate included in a cAMP Assay ELISA kit (Enzo Life science, New York, USA) was coated with a GxR IgG antibody, and cAMP in a blue solution for plotting the standard calibration curve, binds with alkaline phosphatase and turns into yellow color by the rabbit antibody. When pNpp substrate is added into the wells bound with cAMP, alkaline phosphatase is activated to cause the color changes, and a cAMP concentration may be measured through colorimetric quantification at a wavelength of 405 nm. In this experiment, Hepa1c1c-7 cells were seeded on a 96-well plate at 1×10^4 cells/well for differentiation, and treated with 50 μM of AzA and 1 μM of Forskolin (FSK), which is a positive control, for 18 hours, and then a cAMP concentration was measured according to the above-described method.
# [2] = tested on: 3T3-L1 adipose cells; experiment: MTT cytotoxicity assay in 3T3-L1 adipose cells; assay type: cell-based, mouse; details: 0 to 500 μM AzA, compared with control group
# Protocol: The cytotoxicity test for 3T3-L1 adipose cells was performed by a tetrazolium-based colorimetric (MTT) method. The MTT assay is a method for evaluating cytotoxicity by measuring absorbance at a suitable wavelength (usually at 500 to 600 nm) based on a metabolic process, in which a dehydrogenase in mitochondria of intact cells reduces a yellow water-soluble tetrazolium salt [3-(4,5-dimethylthiazol-2-yl)-2-5-diphenyltetrazolium bromide] (MTT) into a water-insoluble dark violet MTT formazan crystal.
# [3] = tested on: Hepa1c1c-7 cells; experiment: Fatty acid oxidation rate ([1-14C]palmitate) in Hepa1c1c-7 cells; assay type: cell-based, mouse; details: 100 μM AzA, 24 hours, compared with control group
# Protocol: Hepa1c1c-7 cells were seeded on a 24-well plate at 5×10^5 cells/mL, cultured for 24 hours, treated with 100 μM of AzA, and then incubated for 24 hours. Afterward, [1-^14C]palmitate was accumulated, the cells were cultured for one hour, and the medium was collected to extract CO2 using NaOH and HCl, followed by measuring ^14CO2 using a liquid scintillation counter. As a positive control, GW7647 (1 μM) was used.
# [4] = tested on: ob/ob mouse; experiment: Fatty liver inhibitory effect in ob/ob mouse; assay type: in vivo; details: 60% high-fat diet, AzA 50 mg/kg oral, 6 weeks
# Protocol: A 7-week-old male fatty liver model ob/ob mouse was purchased from Central Laboratory Animal Inc. to be used in an experiment. An AzA was orally administered at 50 mg/kg of body weight along with a 60% high-fat diet (HFD) for 6 weeks. As the experiment progresses, body weight was measured once a week, and food intake was measured […] on the last week. The concentration of triglycerides in liver tissue was measured by homogenizing liver tissue of a mouse in 600 μL of acetone (Daejung, Korea), storing the homogenate at 4° C. for 24 hours, and obtaining a fat part by centrifugation at 12000 rpm for 10 minutes. The fat part was dried, dissolved in 95% ethanol, quantified using a Cobas C11 autoanalyzer (Roche, Basel, Switzerland) and normalized with a liver weight. A fatty acid oxidation rate was measured and analyzed by the method of Example 4-4 described above.
# [5] = tested on: Olfr544 KO mouse; experiment: Fatty liver inhibitory effect in high-fat diet Olfr544 KO mouse; assay type: in vivo
# Protocol: Mice used in the example, which were an eight-week-old C57BL/6J model, were purchased from Samtako, and Olfr544 KO mice were manufactured by Macrogen based on the C57BL/6J model using a CRISPR/Cas9 system. All experiments performed in the example are compliant to a protocol approved by the Animal Experiment Ethics Committee at Korea University (Protocol No. KUIACUC-20170322-1). The mice were acclimated at 21 to 25° C. under a 50 to 60% relative humidity condition for 12 hours before being used in the experiments, and a total of 18 mice were treated with an AzA diluted with distilled water at 50 mg/kg of body weight and distilled water as a control through oral administration for 6 weeks. The mice used in the experiments were fed a high-fat diet containing 60% fat (D12492, Research Diets, Inc) to induce fatty liver, and then a body weight was measured every week. […] An oxygen consumption amount (VO2) and a carbon dioxide production amount (VCO2) were analyzed using an Oxylet Physiocage System (Panlab/Harvard apparatus, Cornella, Spain) and suiteMETABOLISM (V2.2.01, Panlab) software. A respiratory quotient (RQ) was calculated using the formula VCO2/VO2, and energy expenditure was analyzed using the formula EE=VO2×1.11×(3.815+1.232×RQ). The oxidation of a free fatty acid was calculated using the formula (1.6946×VO2)−(1.7012×VCO2). An AzA (100 mg/kg) was intraperitoneally administered, and then concentration of a glycerol, which is a body fat decomposition marker, was measured. […] To measure glucose resistance and insulin resistance, a glucose and insulin resistance test was performed under a condition, in which glucose ([…]) and insulin (0.35 unit/kg/bw) are administered to a mouse.
# [6] = Olfr544 KO mouse, HFD and AzA for 6 weeks
compound,measurement,setting,value
"O=C(O)CCCCCCCC(=O)O [AzA, nonanedioic acid]",cAMP concentration in the cells,"[1]; 50 μM AzA, 18 hours, compared with control group",significantly increased
same,PKA activity,[1]; AzA treatment,significantly increased
same,calcium concentration in the cells,[1]; compared with control group,significantly increased
same,cytotoxicity (MTT assay),[2],toxicity was not exhibited at every concentration
same,fatty acid oxidation rate,[3],significantly increased
same,expression of PPARα and a target gene thereof (Hmgcs2) in liver tissue,[4],significantly increased
same,triglyceride concentration in liver tissue,[4],reduced
same,body weight,[4]; compared with control group,decreased
same,glucose resistance (glucose resistance test),[5]; KO mouse,not observed
same,insulin resistance (insulin resistance test),[5]; KO mouse,not observed
same,abdominal fat (microCT),"[5]; KO mouse, AzA 50 mg/kg/day",no such effects
same,total fat amount (microCT),"[5]; KO mouse, AzA 50 mg/kg/day",no such effects
same,blood glycerol concentration (body fat decomposition marker),"[5]; KO mouse, AzA 100 mg/kg intraperitoneally",no effect
same,oxidation of free fatty acids (indirect calorimetric analysis),[5]; [6],these effects were not shown
same,respiratory quotient (indirect calorimetric analysis),[5]; [6],these effects were not shown
